Measured values from patent publication EP2664619B1, “Purine derivatives as tools for screening anti-Alzheimer compounds” (Manros Therapeutics, priority 2012, dated 2013).

Assays:
N2a-APP695 cells = experiment: MTS cell viability assay in the same wells as the ELISA; settings: MTS assay, N2a-APP695 cells; for Toxicity: class symbol; for Toxicity (concentration in brackets): concentration above which toxic
Protocol: To measure cell viability, the MTS assay (CellTiter 96® AQueous One Solution Cell Proliferation Assay, Promega) was used in the same wells as the capture ELISA assay. 20µl of MTS reagent (3-(4,5-dimethylthiazol-2-yl)-5-(3-carboxymethoxyphenyl)-2-(4-sulfophenyl)-2H-tetrazolium) was added in each well containing 100µl of media and incubation was then proceeded for 3 hours (37°C, 5% CO2 and 95% humidity). Measurements were made on OD 490Δ630 nm (excitation and emission wavelengths) using a microELISA reader (BioTek Instrument, El 800, Gen 5 software).

Aβ42 production = experiment: Sandwich ELISA measurement of Aβ42 levels in supernatant of treated N2a-APP695 cells; assay type: cell-based, Mouse; settings: N2a-APP695 cells; for EC50: Mus musculus, 18h incubation, ELISA assay, read-out: EC50 (µM) at inducing Aβ42 production
Protocol: Mouse neuroblastoma cells (N2a cells) or N2a-APP695 cells (N2a cell line stably transfected with APP695, an amyloid precursor protein) were cultured in an essential medium composed of Dulbecco's minimal essential medium (DMEM) and of OptiMEM® (1:1, v/v) (Gibco®) containing 0.2 mg/mL Geniticin (Geneticin® Selective Antibiotic, Gibco®) and 5 % fetal bovine serum (FBS, Gibco®, EU approved origin) in a humidified, 5% CO2 incubator at 37°C. Routinely, cells were split without use of Trypsin every 4/5 days. They were first rinsed with PBS (Gibco) and detached from the plate bottom using 4 mL Versene (Gibco) at room temperature for 3-4 min. 8 mL of fresh medium were added to the cell suspension, and the mix was centrifuged for 3 min at 1,000 rpm. The cell pellet was resuspended in fresh medium before seeding (1/10 dilution) in new flasks.
The N2a-APP695 cells were seeded at 10.000 cells/well in a 96 well plate with modified media (0.5% FBS) and incubated overnight. Cells were treated with fresh media comprising different compounds according to the invention (equal quantity of DMSO sold by Sigma®). They were then incubated for 18h in a humidified, 5% CO2 incubator.
Purines according to the invention were added at various concentrations to N2a-APP695.
The plate was finally centrifuged to remove cell fragments before collecting supernatant samples for amyloids levels determination.
Then, Aβ38, Aβ40 and Aβ42 levels were measured in a sandwich ELISA (Enzyme-Linked ImmunoSorbent Assay) using a combination of monoclonal antibody 6E10 (mAb 6E10) (sold by Covance® under the reference SIG-39320) and biotinylated polyclonal Aβ38, Aβ40 or Aβ42 antibodies (provided by Dr. P.D. Mehta, IBR, Staten Island, USA).
A solution of 100 µl mAb 6E10 diluted in carbonate-bicarbonate buffer, pH 9.6, was coated in the wells of microtiter plates (Maxisorp™ sold by Nunc®) and incubated at 4°C overnight. The plates were then washed with PBST (PBS tablets sold by Gibco®) containing 0.05% Tween-20 (Sigma®), and blocked for 1 h with 1% BSA (Sigma®) in PBST (PBS tablets sold by Gibco®) containing 0.05 Tween-20 (Sigma®) to avoid nonspecific binding.
Following a washing step, samples were added and incubated for 2 hours at room temperature (RT) and then at 4°C overnight. Plates were then washed before incubation with biotinylated polyclonal antibody diluted in PBST (PBS tablets sold by Gibco®) containing 0.05 Tween-20 (Sigma®) + 0.5% BSA at room temperature for 75 minutes.
After a washing step, streptavidin-horseradish peroxidase conjugate (Streptavidin poly-HRP, Thermo Scientific Pierce®), diluted in PBS + 1% BSA, was added and incubation was carried out for 45 min at room temperature. After washing, 100 µl of o-phenylenediamine dihydrochloride (OPD tablets, Invitrogen®) diluted in citrate buffer pH 5.0 were added. The reaction was stopped after 15 min with the addition of 100 µl 1 N sulfuric acid.
A range of known concentrations of Aβ38, Aβ40 and Aβ42, ranging from 0.01 to 10 ng/mL for Aβ38 and Aβ42, and ranging from 0.001 to 10 ng/mL for Aβ40, were use as a reference scale to determine the concentrations of Aβ38, Aβ40 and Aβ42 obtained.
The optical density was finally measured at 490 nm in a microELISA reader (sold by BioTek Instrument, reference E1 800, Gen 5 software).
The EC50 of the molecules tested were thus calculated.

Structure (SMILES) | Toxicity (N2a-APP695 cells) | EC50 (Aβ42 production) [µM] | Toxicity (concentration in brackets) (N2a-APP695 cells) [µM] | fold (printed in the EC50 cell) (Aβ42 production; Aβ42 production) [fold]
CC(C)n1cnc2c(N(C)Cc3ccccc3)nc(N)nc21 [Aftin-1, N6-benzyl-9-isopropyl-N6-methyl-purine-2,6-diamine] | + | 20 |  | 
CN(Cc1ccccc1)c1nc(N)nc2c1ncn2C1CCCC1 [Aftin-2, N6-Benzyl-9-cyclopentyl-N6-methyl-purine-2,6-diamine] | - ("-" means that the tested compound is non toxic with a concentration higher than 100 µM) | 11 |  | 
CC[C@H](CO)Nc1nc(OCc2ccccc2)c2ncn(C(C)C)c2n1 [Aftin-3] | - ("-" means that the tested compound is non toxic with a concentration higher than 100 µM) | 13 |  | 
CC[C@H](CO)Nc1nc(N(C)Cc2ccccc2)c2ncn(C(C)C)c2n1 [Aftin-4, N6-methyl-roscovitine] | + | 10 | > 31 | 
CN(Cc1ccccc1)c1nc(N)nc2[nH]cnc12 [Compound 1, reference compound] | - ("-" means that the tested compound is non toxic with a concentration higher than 100 µM) | 100 |  | 
CC[C@H](CO)Nc1nc(NCc2ccccc2)c2ncn(C(C)C)c2n1 [Compound 2, reference compound] | - ("-" means that the tested compound is non toxic with a concentration higher than 100 µM) |  |  | 
CC(C)n1cnc2c(N(C)Cc3ccccc3)ncnc21 [Compound 9, N-benzyl-9-isopropyl-N-methyl-purin-6-amine] | - ("-" means that the tested compound is non toxic with a concentration higher than 100 µM) | 12 |  | 
CN(Cc1ccccc1)c1ncnc2c1ncn2C1CCCC1 [Compound 12] | + | 12 | > 31 | 
CC[C@H](CO)Nc1nc(N(CC)Cc2ccccc2)c2ncn(C(C)C)c2n1 [Compound 13] | + | 3.8 | > 31 | 
CC[C@H](CO)Nc1nc(N(C)Cc2ccccc2)c2ncn(C3CCCC3)c2n1 [Compound 14] | + | 2.7 | > 20 | 
CCN(Cc1ccccc1)c1nc(N[C@@H](CO)C(C)C)nc2c1ncn2C1CCCC1 [Compound 15] | + | 0.5 |  | 
CC[C@H](CO)Nc1nc(N(C)Cc2ccc(-c3ccccn3)cc2)c2ncn(C(C)C)c2n1 [Compound 16] | + | 3.2 | > 31 | 
CC[C@H](CO)Nc1nc(N(C)Cc2ccccc2)c2ncn(Cc3ccccc3)c2n1 [Compound 17] | + | 0.7 | > 12 | 
CC[C@H](CO)Nc1nc(N(CC)Cc2ccccc2)c2ncn(Cc3ccccc3)c2n1 [Compound 18] | + | 1.3 | > 12 | 
CC[C@H](CO)Nc1nc(N2CCc3ccccc32)c2ncn(C(C)C)c2n1 [Compound 19] | + | 8 | > 31 | 
CCCN(Cc1ccccc1)c1nc(N[C@H](CC)CO)nc2c1ncn2C(C)C [Compound 20] | + | 1.35 | > 12 | 
CC[C@H](CO)Nc1nc(N(C)Cc2ccc(-c3ccccc3)cc2)c2ncn(C(C)C)c2n1 [Compound 21] | + | 0.45 |  | 
CCN(CC)CCNc1nc(N(CC)Cc2ccccc2)c2ncn(C3CCCC3)c2n1 [Compound 22] | + | 0.8 | > 12 | 

Structure (SMILES) | Toxicity (N2a-APP695 cells) | EC50 (Aβ42 production) [µM] | Toxicity (concentration in brackets) (N2a-APP695 cells) [µM] | fold (printed in the EC50 cell) (Aβ42 production; Aβ42 production) [fold]
CC[C@H](CO)Nc1nc(N(Cc2ccccc2)C(C)C)c2ncn(C(C)C)c2n1 [Compound 23, (2R)-2-[[6-[benzyl(isopropyl)amino]-9-isopropylpurin-2-yl]amino]butan-1-ol] | + | 2.5 | > 12 | 
CC[C@H](CO)Nc1nc(N2CCc3ccccc3C2)c2ncn(C(C)C)c2n1 [Compound 24] | + | 3.5 | > 31 | 
CC[C@@H](CO)Nc1nc(N(C)c2ccccc2)c2ncn(C(C)C)c2n1 [Compound 26] | - ("-" means that the tested compound is non toxic with a concentration higher than 100 µM) | 17 |  | 
CC[C@@H](CO)Nc1nc(N(C)Cc2ccc(-c3ccccn3)cc2)c2ncn(C(C)C)c2n1 [Compound 28] | + | 2.8 | > 12 | 
CC(C)n1cnc2c(N(C)Cc3ccc(-c4ccccn4)cc3)nc(NC[C@H](O)CO)nc21 [Compound 29] | - ("-" means that the tested compound is non toxic with a concentration higher than 100 µM) | 10 |  | 
CC[C@H](CO)Nc1nc(N(C)Cc2ccc(C(=O)NCCOCCOCCOCCOCCOCCN)cc2)c2ncn(C(C)C)c2n1 [Compound 30] | - ("-" means that the tested compound is non toxic with a concentration higher than 100 µM) | > 100 |  | 
CC[C@@H](CO)Nc1nc(OCc2ccccc2)c2ncn(C(C)C)c2n1 [Compound 32] | - ("-" means that the tested compound is non toxic with a concentration higher than 100 µM) | 21 |  | 
CC(C)n1cnc2c(N(C)Cc3ccc(F)cc3)nc(NC3CCNCC3)nc21 [Compound 33] | + | 10 | > 12 | 2
CCC(CO)Nc1nc(N(C)c2ccc(F)cc2)c2ncn(C(C)C)c2n1 (stereo not shown) [Compound 34] | - ("-" means that the tested compound is non toxic with a concentration higher than 100 µM) | 30 |  | 
CC[C@H](CO)Nc1nc(N(C)Cc2cccc(OC)c2)c2ncn(C(C)C)c2n1 [Compound 36] | + | 105 | > 100 | 
CC[C@@H](CO)Nc1nc(N(C)Cc2ccc(F)cc2)c2ncn(C(C)C)c2n1 [Compound 37] | + | 52 | > 12 | 
CC[C@H](CO)Nc1nc(N(C)Cc2ccc(F)cc2)c2ncn(C(C)C)c2n1 [Compound 38] | + | 55 | > 12 | 
CC(C)n1cnc2c(N(C)c3ccccc3)nc(N(CCO)CCO)nc21 [Compound 39] |  | > 150 |  | 
CC(C)n1cnc2c(N(C)c3ccccc3)nc(NCCO)nc21 [Compound 40] | - ("-" means that the tested compound is non toxic with a concentration higher than 100 µM) | > 150 |  | 
CC[C@H](CO)Nc1nc(N(CC)c2ccccc2)c2ncn(C(C)C)c2n1 [Compound 42] | + | 25 | > 100 | 
CC[C@H](CO)Nc1nc(N(C)c2ccc(OC)cc2)c2ncn(C(C)C)c2n1 [Compound 44, (2R)-2-[[9-isopropyl-6-[(4-methoxyphenyl)-methyl-amino]purin-2-yl]amino]butan-1-ol] | + | 4.5 | > 21 | 
CC(C)n1cnc2c(OCc3ccccc3)nc(OCc3ccccc3)nc21 [Compound 46, 9-Iso-propyl-2,6-dibenzyloxypurine] | + | 3.5 | > 12 | 
CC[C@H](CO)Nc1nc(SCc2ccccc2)c2ncn(C(C)C)c2n1 [Compound 47, (2R)-2-[(6-benzylsulfanyl-9-isopropyl-purin-2-yl)amino]butan-1-ol] | + | > 10 |  | 
